“And” between values parts separate entries of the source, which are not always exact repeats. Equal entries are not always repeated.
Columns and labels:
Assay in all cases: Affinity-purification and mass spectrometry (AP-MS) chemical proteomics, all proteins;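 for Difference: 200 µM free competitor with 20 µM biotin probe overnight in lysate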
Assay type in all cases: binding
[1] = biological target: T1, proteins displaced from immobilized biotin-Cmpd 1 pulldowns (U2OS cell lysate) (Homo sapiens, UniProt P60174); conditions: GN=TPI1 (P60174)
T1 construct: endogenous in cells; host or cells: U2OS
T1 sequence (P60174 whole entry): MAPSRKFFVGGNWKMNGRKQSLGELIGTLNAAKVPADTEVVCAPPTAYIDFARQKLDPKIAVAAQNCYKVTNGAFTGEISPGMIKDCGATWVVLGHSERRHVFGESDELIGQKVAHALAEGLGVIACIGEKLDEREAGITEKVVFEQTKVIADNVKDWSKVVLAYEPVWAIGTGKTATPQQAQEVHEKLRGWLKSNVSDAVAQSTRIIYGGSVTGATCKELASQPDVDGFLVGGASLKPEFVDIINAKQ

[2] = biological target: T2, proteins displaced from immobilized biotin-Cmpd 1 pulldowns (U2OS cell lysate) (Homo sapiens, UniProt Q13601); conditions: GN=KRR1 (Q13601)
T2 construct: endogenous in cells; host or cells: U2OS
T2 sequence (Q13601 whole entry): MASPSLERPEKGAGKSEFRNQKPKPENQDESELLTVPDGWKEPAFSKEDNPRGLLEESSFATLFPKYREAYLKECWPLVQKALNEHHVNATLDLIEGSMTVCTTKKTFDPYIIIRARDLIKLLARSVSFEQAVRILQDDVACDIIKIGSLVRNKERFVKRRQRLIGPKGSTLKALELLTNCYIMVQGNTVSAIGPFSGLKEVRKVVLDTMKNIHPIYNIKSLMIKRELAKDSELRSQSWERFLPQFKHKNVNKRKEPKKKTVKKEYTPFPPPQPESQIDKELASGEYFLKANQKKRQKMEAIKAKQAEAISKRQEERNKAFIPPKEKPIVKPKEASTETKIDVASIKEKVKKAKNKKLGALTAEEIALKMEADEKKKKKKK

[3] = biological target: T3, proteins displaced from immobilized biotin-Cmpd 1 pulldowns (U2OS cell lysate) (Homo sapiens, UniProt Q96EY1); conditions: GN=DNAJA3 (Q96EY1)
T3 construct: endogenous in cells; host or cells: U2OS
T3 sequence (Q96EY1 whole entry): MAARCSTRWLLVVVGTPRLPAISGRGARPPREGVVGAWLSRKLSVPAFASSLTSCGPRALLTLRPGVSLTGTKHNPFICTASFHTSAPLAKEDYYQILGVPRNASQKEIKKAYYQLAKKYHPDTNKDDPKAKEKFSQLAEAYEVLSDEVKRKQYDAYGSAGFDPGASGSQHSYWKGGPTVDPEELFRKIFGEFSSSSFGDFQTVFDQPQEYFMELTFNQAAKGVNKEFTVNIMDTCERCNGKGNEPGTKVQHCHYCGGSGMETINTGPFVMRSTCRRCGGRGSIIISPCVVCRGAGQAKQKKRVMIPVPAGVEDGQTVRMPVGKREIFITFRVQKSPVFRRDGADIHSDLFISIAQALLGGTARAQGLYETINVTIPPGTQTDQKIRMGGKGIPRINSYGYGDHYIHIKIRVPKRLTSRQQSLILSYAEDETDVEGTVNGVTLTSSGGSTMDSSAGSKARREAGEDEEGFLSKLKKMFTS

[4] = biological target: T4, proteins displaced from immobilized biotin-Cmpd 1 pulldowns (U2OS cell lysate) (Homo sapiens, UniProt Q01105); conditions: GN=SET (Q01105)
T4 construct: endogenous in cells; host or cells: U2OS
T4 sequence (Q01105 whole entry): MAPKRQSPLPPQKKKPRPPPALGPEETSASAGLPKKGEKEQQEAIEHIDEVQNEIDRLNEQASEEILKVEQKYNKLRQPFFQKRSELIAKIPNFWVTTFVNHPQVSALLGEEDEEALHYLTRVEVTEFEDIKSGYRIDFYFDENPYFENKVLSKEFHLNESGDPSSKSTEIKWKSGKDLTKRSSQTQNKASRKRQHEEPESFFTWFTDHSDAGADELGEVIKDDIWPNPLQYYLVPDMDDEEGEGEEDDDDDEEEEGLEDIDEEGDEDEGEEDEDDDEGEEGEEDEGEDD

[5] = biological target: T5, proteins displaced from immobilized biotin-Cmpd 1 pulldowns (U2OS cell lysate) (Homo sapiens, UniProt O43660); conditions: GN=PLRG1 (O43660)
T5 construct: endogenous in cells; host or cells: U2OS
T5 sequence (O43660 whole entry): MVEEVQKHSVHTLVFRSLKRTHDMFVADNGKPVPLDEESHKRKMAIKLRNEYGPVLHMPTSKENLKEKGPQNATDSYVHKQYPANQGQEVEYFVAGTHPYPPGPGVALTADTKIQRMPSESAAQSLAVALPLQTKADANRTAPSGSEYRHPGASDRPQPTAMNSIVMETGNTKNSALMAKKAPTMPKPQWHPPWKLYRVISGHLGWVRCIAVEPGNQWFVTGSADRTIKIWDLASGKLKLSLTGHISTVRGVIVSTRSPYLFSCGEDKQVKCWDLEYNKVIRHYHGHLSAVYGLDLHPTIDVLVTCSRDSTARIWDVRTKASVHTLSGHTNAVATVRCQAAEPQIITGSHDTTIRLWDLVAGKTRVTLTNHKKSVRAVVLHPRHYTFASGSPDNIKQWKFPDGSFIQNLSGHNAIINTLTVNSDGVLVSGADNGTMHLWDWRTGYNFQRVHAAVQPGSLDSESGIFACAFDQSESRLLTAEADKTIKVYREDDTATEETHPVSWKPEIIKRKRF

[6] = biological target: T6, proteins displaced from immobilized biotin-Cmpd 1 pulldowns (U2OS cell lysate) (Homo sapiens, UniProt O75223); conditions: GN=GGCT (O75223)
T6 construct: endogenous in cells; host or cells: U2OS
T6 sequence (O75223 whole entry): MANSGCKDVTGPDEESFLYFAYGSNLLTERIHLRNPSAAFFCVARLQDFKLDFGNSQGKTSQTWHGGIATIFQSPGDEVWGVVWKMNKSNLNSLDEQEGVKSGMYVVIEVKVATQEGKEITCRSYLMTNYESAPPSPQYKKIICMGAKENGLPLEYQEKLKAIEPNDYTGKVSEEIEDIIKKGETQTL

[7] = biological target: T7, proteins displaced from immobilized biotin-Cmpd 1 pulldowns (U2OS cell lysate) (Homo sapiens, UniProt P09493); conditions: GN=TPM1 (H0YKX5)
T7 construct: endogenous in cells; host or cells: U2OS
T7 sequence (P09493 whole entry): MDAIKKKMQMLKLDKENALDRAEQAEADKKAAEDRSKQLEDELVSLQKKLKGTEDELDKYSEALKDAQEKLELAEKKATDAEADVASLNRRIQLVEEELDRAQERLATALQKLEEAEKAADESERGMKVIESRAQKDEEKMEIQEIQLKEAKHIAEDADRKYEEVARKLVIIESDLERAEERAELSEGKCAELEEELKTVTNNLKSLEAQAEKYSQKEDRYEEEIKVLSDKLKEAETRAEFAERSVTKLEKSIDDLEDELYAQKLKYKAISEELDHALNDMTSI

[8] = biological target: T8, proteins displaced from immobilized biotin-Cmpd 1 pulldowns (U2OS cell lysate) (Homo sapiens, UniProt O14979); conditions: GN=HNRNPDL (A0A087WU03)
T8 construct: endogenous in cells; host or cells: U2OS
T8 sequence (O14979 whole entry): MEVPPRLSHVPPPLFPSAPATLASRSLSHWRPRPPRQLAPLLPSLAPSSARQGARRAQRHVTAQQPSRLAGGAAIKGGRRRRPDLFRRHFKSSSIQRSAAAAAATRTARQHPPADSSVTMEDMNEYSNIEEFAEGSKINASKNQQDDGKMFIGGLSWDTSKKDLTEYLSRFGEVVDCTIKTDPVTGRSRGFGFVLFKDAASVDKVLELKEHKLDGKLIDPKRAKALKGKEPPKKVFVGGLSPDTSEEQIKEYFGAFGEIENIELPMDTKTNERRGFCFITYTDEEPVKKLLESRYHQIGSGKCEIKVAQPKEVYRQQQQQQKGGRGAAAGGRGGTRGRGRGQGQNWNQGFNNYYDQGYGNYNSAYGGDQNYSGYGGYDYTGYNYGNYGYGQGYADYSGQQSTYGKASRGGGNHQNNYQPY

[9] = biological target: T9, proteins displaced from immobilized biotin-Cmpd 1 pulldowns (U2OS cell lysate) (Homo sapiens, UniProt P10599); conditions: GN=TXN (P10599)
T9 construct: endogenous in cells; host or cells: U2OS
T9 sequence (P10599 whole entry): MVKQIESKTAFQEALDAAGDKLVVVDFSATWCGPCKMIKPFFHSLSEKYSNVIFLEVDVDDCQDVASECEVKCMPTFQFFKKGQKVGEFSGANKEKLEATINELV

[10] = biological target: T10, proteins displaced from immobilized biotin-Cmpd 1 pulldowns (U2OS cell lysate) (Homo sapiens, UniProt Q9NR12); conditions: GN=PDLIM7 (Q9NR12)
T10 construct: endogenous in cells; host or cells: U2OS
T10 sequence (Q9NR12 whole entry): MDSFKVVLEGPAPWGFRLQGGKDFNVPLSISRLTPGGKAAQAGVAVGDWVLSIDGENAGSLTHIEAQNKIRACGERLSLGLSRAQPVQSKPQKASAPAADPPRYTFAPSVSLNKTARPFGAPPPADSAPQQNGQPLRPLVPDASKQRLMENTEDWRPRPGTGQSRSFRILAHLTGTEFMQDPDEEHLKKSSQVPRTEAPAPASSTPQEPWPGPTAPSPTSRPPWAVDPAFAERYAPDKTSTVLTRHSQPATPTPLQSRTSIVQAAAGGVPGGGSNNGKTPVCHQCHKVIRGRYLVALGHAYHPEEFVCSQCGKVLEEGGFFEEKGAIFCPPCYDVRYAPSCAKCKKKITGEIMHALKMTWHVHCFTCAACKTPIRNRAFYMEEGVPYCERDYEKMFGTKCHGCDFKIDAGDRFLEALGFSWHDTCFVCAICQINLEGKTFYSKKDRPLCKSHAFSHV

For `Cn1c2c(c(=N)c3c1CCC3)CCC2` [Compound 1, 4-methyl-2,3,4,5,6,7-hexahydrodicyclopenta[b,e]pyridin-8(1H)-imine], the Difference ([1]; Cmpd minus DMSO, -LOG(P-value) 0.713184) was -0.9556, the “iBAQ Cmpd” value ([1]; replicates 1-3) was 17.6148 and 17.9108 and 16.6151 and the Difference ([2]; Cmpd minus DMSO, -LOG(P-value) 0.80089) was 1.298. The “iBAQ Cmpd” value ([2]; replicates 1-3) was 17.9419 and 17.334 and 17.0379, the Difference ([3]; Cmpd minus DMSO, -LOG(P-value) 0.746444) was 0.8281 and the “iBAQ Cmpd” value ([3]; replicates 1-3) was 17.7043 and 17.5809 and 17.383. The Difference ([4]; Cmpd minus DMSO, -LOG(P-value) 0.992199) was 4.792, the “iBAQ Cmpd” value ([4]; replicates 1-3) was 21.3063 and 22.1737 and 20.6451 and the Difference ([5]; Cmpd minus DMSO, -LOG(P-value) 0.874244) was 2.0669. The “iBAQ Cmpd” value ([5]; replicates 1-3) was 19.5697 and 18.4715 and 18.0629, the Difference ([6]; Cmpd minus DMSO, -LOG(P-value) 0.708043) was -1.888 and the “iBAQ Cmpd” value ([6]; replicates 1-3) was 19.1406 and 20.1765 and 18.5823. The Difference ([7]; Cmpd minus DMSO, -LOG(P-value) 1.96752) was -0.7334, the “iBAQ Cmpd” value ([7]; replicates 1-3) was 21.937 and 22.2825 and 22.2241 and the Difference ([8]; Cmpd minus DMSO, -LOG(P-value) 0.798528) was 1.553. For the same compound, the “iBAQ Cmpd” value ([8]; replicates 1-3) was 20.8595 and 22.7108 and 22.2667, the Difference ([9]; Cmpd minus DMSO, -LOG(P-value) 1.02279) was -1.031 and the “iBAQ Cmpd” value ([9]; replicates 1-3) was 20.7578 and 20.8108 and 19.926. The Difference ([10]; Cmpd minus DMSO, -LOG(P-value) 0.715156) was 2.317 and the “iBAQ Cmpd” value ([10]; replicates 1-3) was 18.0201 and 21.1113 and 16.886.

Reference: paper PMC9481570, “A small molecule antagonist of SMN disrupts the interaction between SMN and RNAP II” (Nature Communications, 2022)
